This note sets out measurements from article PMC11172384, “Specific Mutations Reverse Regulatory Effects of Adenosine Phosphates and Increase Their Binding Stoichiometry in CBS Domain-Containing Pyrophosphatase” (International Journal of Molecular Sciences, 2024).

Experiment [1] has as its target T1, dhPPase (Desulfitobacterium hafniense CBS-PPase) (Desulfitobacterium hafniense, UniProt B8FP42, E126A).
T1 construct: gene Dhaf_1515; full-length, tag-less, recombinant in E. coli BL21 (pET-42b); homotetramer
The experiment can be described thus: isothermal titration calorimetry, single-binding-site model. To be noted: read-out: KN. An excerpt:
(§1) isothermal titration calorimetry, single-binding-site model on dhPPase (Desulfitobacterium hafniense CBS-PPase)
For orientation: In ITC the heat of successive injections is recorded.

The target in experiment [2] is T2, dhPPase (Desulfitobacterium hafniense CBS-PPase) (Desulfitobacterium hafniense, UniProt B8FP42).
T2 construct: gene Dhaf_1515; full-length, tag-less, recombinant in E. coli BL21 (pET-42b); homotetramer
T2 sequence (B8FP42 1-544): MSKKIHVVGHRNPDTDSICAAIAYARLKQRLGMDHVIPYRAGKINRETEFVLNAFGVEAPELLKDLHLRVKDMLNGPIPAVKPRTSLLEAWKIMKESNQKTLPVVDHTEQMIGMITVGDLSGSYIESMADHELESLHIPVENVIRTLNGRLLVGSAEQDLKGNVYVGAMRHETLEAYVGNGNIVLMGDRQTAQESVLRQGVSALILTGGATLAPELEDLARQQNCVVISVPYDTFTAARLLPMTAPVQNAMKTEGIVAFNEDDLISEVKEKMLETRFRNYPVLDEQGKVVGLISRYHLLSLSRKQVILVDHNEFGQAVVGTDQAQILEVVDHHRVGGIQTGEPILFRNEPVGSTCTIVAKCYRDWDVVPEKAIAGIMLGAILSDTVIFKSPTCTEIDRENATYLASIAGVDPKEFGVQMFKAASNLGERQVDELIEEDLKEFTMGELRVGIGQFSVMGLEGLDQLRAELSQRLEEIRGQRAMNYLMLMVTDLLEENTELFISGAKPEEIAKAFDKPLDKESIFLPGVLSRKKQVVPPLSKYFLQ
Described as above. To be noted: read-out: KN.
Text: as §1

Experiment [3] deals with T3, dhPPase (Desulfitobacterium hafniense CBS-PPase) (Desulfitobacterium hafniense, UniProt B8FP42, K100A).
T3 construct: gene Dhaf_1515; full-length, tag-less, recombinant in E. coli BL21 (pET-42b); homotetramer
Described as above. Particulars: read-out: KN.
Text: as §1

For experiment [4], the target named is T4, dhPPase (Desulfitobacterium hafniense CBS-PPase) (Desulfitobacterium hafniense, UniProt B8FP42, K95A).
T4 construct: gene Dhaf_1515; full-length, tag-less, recombinant in E. coli BL21 (pET-42b); homotetramer
Described as above. Particulars: read-out: KN.
Text: as §1

The target in experiment [5] is T5, dhPPase (Desulfitobacterium hafniense CBS-PPase) (Desulfitobacterium hafniense, UniProt B8FP42, G118M).
T5 construct: gene Dhaf_1515; full-length, tag-less, recombinant in E. coli BL21 (pET-42b); homotetramer
The experiment is described as above. Particulars: read-out: KN.
Text: as §1

The target of experiment [6] is T6, dhPPase (Desulfitobacterium hafniense CBS-PPase) (Desulfitobacterium hafniense, UniProt B8FP42, G118A).
T6 construct: gene Dhaf_1515; full-length, tag-less, recombinant in E. coli BL21 (pET-42b); homotetramer
Described as above. To be noted: read-out: KN.
Text: as §1

The target of experiment [7] is T5, dhPPase (Desulfitobacterium hafniense CBS-PPase). The experiment in a line: activation of PPi hydrolysis, continuous Pi assay, Hill fit. Format: biochemical. Particulars: read-out: Adenosine Phosphate and Parameter Value ^a / Ap4A / K. An excerpt:
(§2) activation of PPi hydrolysis, continuous Pi assay, Hill fit on dhPPase (Desulfitobacterium hafniense CBS-PPase)

For experiment [8], the target named is T7, dhPPase (Desulfitobacterium hafniense CBS-PPase) (Desulfitobacterium hafniense, UniProt B8FP42, V117T).
T7 construct: gene Dhaf_1515; full-length, tag-less, recombinant in E. coli BL21 (pET-42b); homotetramer
The experiment is described as above. Format: biochemical. To be noted: read-out: Adenosine Phosphate and Parameter Value ^a / Ap4A / K.
Text: as §2

Experiment [9] deals with T8, dhPPase (Desulfitobacterium hafniense CBS-PPase) (Desulfitobacterium hafniense, UniProt B8FP42, V117A).
T8 construct: gene Dhaf_1515; full-length, tag-less, recombinant in E. coli BL21 (pET-42b); homotetramer
Described as above. Format: biochemical. Particulars: read-out: Adenosine Phosphate and Parameter Value ^a / Ap4A / K.
Text: as §2

Experiment [10] deals with T3, dhPPase (Desulfitobacterium hafniense CBS-PPase). The description is as above. Particulars: read-out: Adenosine Phosphate and Parameter Value ^a / Ap4A / K. Format: biochemical.
Text: as §2

In experiment [11] the target is T2, dhPPase (Desulfitobacterium hafniense CBS-PPase). The experiment can be described thus: continuous Pi assay. Format: biochemical. To be noted: pH 7.2, 25 °C, 5.23 mM MgCl2, 140 µM PPi.

T3 sequence (B8FP42 entry or part of it K100A): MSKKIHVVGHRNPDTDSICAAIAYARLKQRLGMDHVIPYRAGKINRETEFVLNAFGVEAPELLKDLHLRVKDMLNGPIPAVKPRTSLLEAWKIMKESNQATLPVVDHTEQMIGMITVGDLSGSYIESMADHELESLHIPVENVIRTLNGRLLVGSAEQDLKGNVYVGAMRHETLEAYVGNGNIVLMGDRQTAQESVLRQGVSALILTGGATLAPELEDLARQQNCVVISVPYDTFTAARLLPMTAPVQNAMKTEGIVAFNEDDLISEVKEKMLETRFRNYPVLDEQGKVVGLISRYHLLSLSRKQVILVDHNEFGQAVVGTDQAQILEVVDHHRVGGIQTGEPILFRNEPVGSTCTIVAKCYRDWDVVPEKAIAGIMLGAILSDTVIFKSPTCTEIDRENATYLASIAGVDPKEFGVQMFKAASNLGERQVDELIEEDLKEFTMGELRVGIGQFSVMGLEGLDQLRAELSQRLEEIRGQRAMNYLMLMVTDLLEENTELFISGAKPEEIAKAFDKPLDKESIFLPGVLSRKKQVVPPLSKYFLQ
T5 sequence (B8FP42 entry or part of it G118M): as the sequence (B8FP42 entry or part of it K100A) above, with A100K, G118M counted along it
T7 sequence (B8FP42 entry or part of it V117T): as the sequence (B8FP42 entry or part of it K100A) above, with A100K, V117T counted along it
T6 sequence (B8FP42 entry or part of it G118A): as the sequence (B8FP42 entry or part of it K100A) above, with A100K, G118A counted along it
T4 sequence (B8FP42 entry or part of it K95A): as the sequence (B8FP42 entry or part of it K100A) above, with K95A, A100K counted along it
T1 sequence (B8FP42 entry or part of it E126A): as the sequence (B8FP42 entry or part of it K100A) above, with A100K, E126A counted along it
T8 sequence (B8FP42 entry or part of it V117A): as the sequence (B8FP42 entry or part of it K100A) above, with A100K, V117A counted along it

Turning to `Nc1ncnc2c1ncn2[C@@H]1O[C@H](COP(=O)(O)OP(=O)(O)O)[C@@H](O)[C@H]1O` [ADP], the Kd in experiment [1] turned out to be 600 ± 100 nM; in experiment [2], 1000 ± 200 nM; in experiment [3] it was 6000 ± 2000 nM.
On to `Nc1ncnc2c1ncn2[C@@H]1O[C@H](COP(=O)(O)O)[C@@H](O)[C@H]1O` [AMP], for which the Kd in experiment [4] came to 4600 ± 700 nM; in [5], 520 ± 70 nM; in experiment [6], 4200 ± 600 nM; in [2], 800 ± 300 nM; in experiment [3], 1300 ± 200 nM.
`Nc1ncnc2c1ncn2[C@@H]1O[C@H](COP(=O)(O)OP(=O)(O)OP(=O)(O)O)[C@@H](O)[C@H]1O` [ATP]: the Kd in [2] amounted to 2100 ± 300 nM.
For the molecule `Nc1ncnc2c1ncn2[C@@H]1O[C@H](COP(=O)(O)OP(=O)(O)OP(=O)(O)OP(=O)(O)OC[C@H]2O[C@@H](n3cnc4c(N)ncnc43)[C@H](O)[C@@H]2O)[C@@H](O)[C@H]1O` [Ap4A], the EC50 in experiment [7] came out at 28 ± 1 nM; in [8] it was 1.3 ± 0.05 nM; in [9] it was 120 ± 10 nM; in [10] it was 11.5 ± 0.1 nM.
On to `O=P(O)(O)OP(=O)(O)O` [PPi], for which the “continuous Pi assay” value in [11] was “The initial rates of PPi hydrolysis were measured using a continuous Pi assay”.
